Assay results from patent US20260305610A1, “TRIAZOLE COMPOUND, AND PREPARATION METHOD THEREFOR, HERBICIDAL COMPOSITION AND USE THEREOF” (QINGDAO KINGAGROOT CHEMICAL COMPOUND CO., LTD., priority 2023, published 2026).

Assays:
[1] = tested on: monocotyledonous and dicotyledonous weeds; experiment: Pre-emergence test experiment (weeds); type: in vivo; design: key: 9: completely dead; 8: growth control rate is greater than or equal to 90% and less than 100%; 7: growth control rate is greater than or equal to 80% and less than 90%; 6: growth control rate is greater than or equal to 70% and less than 80%; growth control rate is greater than or equal to 50% and less than 70%; 4: growth control rate is greater than or equal to 30% and less than 50%; growth control rate is greater than or equal to 20% and less than 30%; growth control rate is greater than or equal to 10% and less than 20%; growth control rate is less than 10%; 0: no effect; details: 30 g a.i./ha
major crops = experiment: Pre-emergence test experiment (crops); type: in vivo; design: key: 9: completely dead; 8: growth control rate is greater than or equal to 90% and less than 100%; 7: growth control rate is greater than or equal to 80% and less than 90%; 6: growth control rate is greater than or equal to 70% and less than 80%; growth control rate is greater than or equal to 50% and less than 70%; 4: growth control rate is greater than or equal to 30% and less than 50%; growth control rate is greater than or equal to 20% and less than 30%; growth control rate is greater than or equal to 10% and less than 20%; growth control rate is less than 10%; 0: no effect; details: 30 g a.i./ha

Structure (SMILES)	Pre-emergence activity level (growth control rate) on Amaranthus retroflexus [1]	Pre-emergence activity level (growth control rate) on Descurainia sophia [1]	Pre-emergence activity level (growth control rate) on Digitaria sanguinalis [1]	Pre-emergence activity level (growth control rate) on Setaria viridis [1]	Pre-emergence activity level (growth control rate) on Solanum nigrum [1]	Pre-emergence activity level (growth control rate) on Veronica [1]	Pre-emergence plant damage level (growth control rate) on Corn (major crops)	Pre-emergence plant damage level (growth control rate) on Cotton (major crops)	Pre-emergence plant damage level (growth control rate) on Soybean (major crops)
CCc1ccc(-n2cnc(C(F)F)n2)nc1Oc1cncc(C(F)(F)F)c1 [Compound 74]	9	9	9	8 (growth control rate is greater than or equal to 90% and less than 100%)	9	9	0	0	0
Cc1ccc(-n2cnc(C(F)(F)F)n2)nc1Oc1ccc(F)c(OC(F)F)c1 [Compound 75]	9	9	9	9	9	9	0	0	0
COc1cc(Oc2ccc(F)c(C(F)(F)F)c2)nc(-n2cnc(C(F)(F)F)n2)c1 [Compound 76]	9	9	9	8 (growth control rate is greater than or equal to 90% and less than 100%)	9	9	0	0	0
COCc1ccc(-n2cnc(C(F)(F)C(F)(F)F)n2)nc1Oc1cccc(OC(F)(F)F)c1 [Compound 77]	9	9	8 (growth control rate is greater than or equal to 90% and less than 100%)	8 (growth control rate is greater than or equal to 90% and less than 100%)	7 (growth control rate is greater than or equal to 80% and less than 90%)	9	0	0	0
COc1cc(Oc2cccc(OC(F)(F)F)c2)nc(-n2cnc(C(F)(F)F)n2)c1 [Compound 78]	9	9	9	8 (growth control rate is greater than or equal to 90% and less than 100%)	8 (growth control rate is greater than or equal to 90% and less than 100%)	9	0	0	0
Cc1ccc(-n2cnc(C(F)F)n2)nc1Oc1cccc(OC(F)F)c1 [Compound 79]	9	9	9	9	8 (growth control rate is greater than or equal to 90% and less than 100%)	9	0	0	0
Cc1ccc(-n2cnc(C(F)F)n2)nc1Oc1ccc(F)c(OC(F)(F)F)c1 [Compound 80]	9	9	9	8 (growth control rate is greater than or equal to 90% and less than 100%)	9	9	0	0	0
Cc1ccc(-n2cnc(C(F)F)n2)nc1Oc1cccc(OC(F)(F)F)c1 [Compound 83]	9	9	9	9	9	9	0	0	0
Cc1ccc(-n2cnc(C(F)F)n2)nc1Oc1cccc(C(F)F)c1 [Compound 84]	9	9	9	9	9	9	0	0	0
CCc1ccc(-n2cnc(C(F)(F)F)n2)nc1Oc1cccc(CF)c1 [Compound 85]	9					9	0	0	0
